Experimental data from US20240042045A1, “NANOPARTICLES CONTAINING MULTIPLE CLEAVABLE PRODUGS FOR CANCER THERAPY” (The University of Chicago, priority 2020, published 2024).
Structures can show the parent of a compound that is named as a salt. Where two headings read alike, the source gives them in different places.

What was measured:
4T1 cells = experiment: In vitro cytotoxicity in 4T1 cells (MTS assay); format: cell-based, murine; settings: 48 h
apoptosis/necrosis [1] = experiment: Apoptosis/necrosis analysis of cells treated with Carb and/or DTX; format: cell-based; settings: 10 μM Carb and/or DTX
Experimental: Apoptosis/necrosis analysis was also performed on cells treated with 10 μM Carb and/or DTX by flow cytometry.

H460 cells = experiment: In vitro cytotoxicity in H460 cells (MTS assay); format: cell-based, human
LL/2 lung cancer cells = experiment: Cytotoxicity of Chol-PTX; format: cell-based
lipoproteins = experiment: Distribution in lipoproteins after incubation in rat plasma (NaBr gradient ultracentrifugation, LC-MS); settings: 37° C., 3 h, Chol-SN38 measured for OxPt/SN38
Source text: Lipoproteins were separated based on their densities by NaBr gradient ultracentrifugation.

Panc02 cells = experiment: In vitro cytotoxicity in Panc02 cells (MTS assay); format: cell-based, murine
Experimental: (§1) The cell viability was measured by MTS assay.

CT26 and MC38 cells [2] = experiment: In vitro cytotoxicity, values not assigned to one colon cancer cell line
LDL [3] = experiment: Isothermal titration calorimetry (ITC) binding to LDL
Experimental: (§2) LDL is the key transporter of cholesterol and cholesterol esters to peripheral cells. It was hypothesized that LDL would strongly bind to Chol-SN38 to enhance its delivery to tumors via LDLR-mediated endocytosis.
Apparent LDL binding affinity of two control particles, OxPt NCP without chol and Chol-SN38 micelle (without the NCP core) was determined to understand which components of the particles bind to LDL.

KPC cells = experiment: In vitro cytotoxicity in KPC cells (MTS assay); format: cell-based, murine; settings: 48 h
Experimental: as §1

MC38 cells = experiment: In vitro cytotoxicity in MC38 cells; format: cell-based, murine
Experimental: (§3) The cell viability was measured by […].

CT26 cells = experiment: In vitro cytotoxicity in CT26 cells; format: cell-based, murine
Experimental: as §3

albumin = albumin (Homo sapiens, UniProt P02768); experiment: ITC binding to albumin
albumin, sequence (P02768 25-609, species assumed): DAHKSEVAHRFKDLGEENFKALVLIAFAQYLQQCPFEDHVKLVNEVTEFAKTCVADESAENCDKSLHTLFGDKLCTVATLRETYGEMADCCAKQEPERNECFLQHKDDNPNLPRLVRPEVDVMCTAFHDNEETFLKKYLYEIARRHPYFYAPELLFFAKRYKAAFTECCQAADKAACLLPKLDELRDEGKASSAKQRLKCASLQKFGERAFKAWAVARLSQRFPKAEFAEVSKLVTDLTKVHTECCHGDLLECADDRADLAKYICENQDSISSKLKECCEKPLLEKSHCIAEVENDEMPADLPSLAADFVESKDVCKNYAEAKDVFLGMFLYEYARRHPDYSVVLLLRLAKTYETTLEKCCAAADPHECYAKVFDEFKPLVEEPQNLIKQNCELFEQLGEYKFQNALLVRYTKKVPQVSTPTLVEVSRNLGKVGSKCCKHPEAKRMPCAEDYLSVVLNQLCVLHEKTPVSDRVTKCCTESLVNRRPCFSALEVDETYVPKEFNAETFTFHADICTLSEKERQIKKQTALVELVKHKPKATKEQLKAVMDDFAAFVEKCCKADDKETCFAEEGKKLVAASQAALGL
Source text: as §2

LDL [4] = experiment: Binding kinetics to LDL in rat plasma at 37° C.; settings: for binding to LDL: Chol-SN38 measured for Chol-SN38 and OxPt/SN38
[5] = Dynamic light scattering (DLS) of particles; format: physicochemical; settings: DLS of OxPt/GEM-core nanoparticles made with the named Chol-disulfide prodrug
Experimental: Synthesis and characterization of OxPt/GEM/SN38 core-shell nanoparticle NCP particles with OxPt-bp and gemcitabine monophosphate (GMP) in the core and Chol-SN38 on the shell, referred to as “OxPt/GMP/SN38,” was synthesized in two steps. […] An aqueous solution of Zn(NO3)2 (60 mg, 600 mg/mL) was added to a 5 mL of 0.3M Triton X-100/1.5M 1-hexanol in cyclohexane and stirred vigorously for 5 min. The Zn(NO3)2-containing microemulsion was added dropwise to the OxPt-bp-containing microemulsion and stirred vigorously for 30 min at room temperature. After the addition of 10 mL ethanol, OxPt-bare was obtained by centrifugation at 11,628×g. The resulting pellet was washed twice with THF/ethanol and finally re-dispersed in THF. The loadings of OxPt in the particles were determined by ICP-MS (Agilent 7700x, Agilent Technologies, Santa Clara, California, United States of America) after digestion with nitric acid. The particle size and zeta potential were determined by dynamic light scattering using a Zetasizer (Nano ZS, Malvern, United Kingdom).

CT26 and MC38 cells [6] = experiment: cells; settings: Mus musculus
apoptosis/necrosis [7] = experiment: Apoptosis/necrosis analysis by flow cytometry (Annexin V / PI); format: cell-based; settings: for percentage of apoptosis: flow cytometry
Experimental: Apoptosis/necrosis analysis was also performed on OxPt and/or SN38 treated cells by flow cytometry.

CT26 and MC38 cells [8] = test system: CT26 and MC38 cells
[9] = Conversion of SN38-TMS to SN38 at pH 5.5 and 7.4; format: physicochemical; settings: for SN38-TMS converted to SN38: pH=5.5, 37° C.
Experimental: SN38-TMS was incubated in acidic conditions mimicking endosomes at 37° C. At pH=5.5, 70% SN38-TMS was converted to SN38 in 24 h and 92% […] SN38-TMS was converted to SN38 in 48 h.

[10] = cited from earlier work
[11] = Panc02 cells, 48 h, read-out: IC50
[12] = MC38 cells, 48 h, for OxPt/SN38 the OxPt IC50, read-out: IC50
[13] = CT26 cells, 48 h, for OxPt/SN38 the OxPt IC50, read-out: IC50

With `N.N.O=C([O-])C1(C(=O)[O-])CCC1.[Pt+2]` [Carb, carboplatin] the IC50 (4T1 cells) was 0.91 µM, the percentage of apoptosis (apoptosis/necrosis [1]) was 2.90% and the IC50 (H460 cells; 48 h) was 3.9 µM.
For `CC(=O)O[C@@]12CO[C@@H]1C[C@H](O)[C@@]1(C)C(=O)[C@H](O)C3=C(C)[C@@H](OC(=O)[C@H](OC(=O)OCOC(=O)CCC(=O)O[C@H]4CC[C@@]5(C)C(=CC[C@H]6[C@@H]7CC[C@H]([C@H](C)CCCC(C)C)[C@@]7(C)CC[C@@H]65)C4)[C@@H](NC(=O)OC(C)(C)C)c4ccccc4)C[C@](O)([C@@H](OC(=O)c4ccccc4)[C@H]21)C3(C)C` [Chol-DTX, Cholesterol-Docetaxel], the IC50 (4T1 cells; Mus musculus) was 15.3 µM and the IC50 (H460 cells; Homo sapiens, NCI-H460, 48 h) was 11.4 µM.
For `CC(=O)O[C@H]1C(=O)[C@]2(C)[C@@H](OC(=O)OCOC(=O)CCC(=O)O[C@H]3CC[C@@]4(C)C(=CC[C@H]5[C@@H]6CC[C@H]([C@H](C)CCCC(C)C)[C@@]6(C)CC[C@@H]54)C3)C[C@H]3OC[C@@]3(OC(C)=O)[C@H]2[C@H](OC(=O)c2ccccc2)[C@]2(O)C[C@H](OC(=O)[C@H](O)[C@@H](NC(=O)c3ccccc3)c3ccccc3)C(C)=C1C2(C)C` [Chol-PTX, Cholesterol-Paclitaxel], the IC50 (LL/2 lung cancer cells) was 3.95 µM.
For `CCc1c2c(nc3ccc(OC(=O)OCOC(=O)CCC(=O)O[C@H]4CC[C@@]5(C)C(=CC[C@H]6[C@@H]7CC[C@H]([C@H](C)CCCC(C)C)[C@@]7(C)CC[C@@H]65)C4)cc13)-c1cc3c(c(=O)n1C2)COC(=O)[C@@]3(CC)O[Si](C)(C)C` [Chol-SN38, 7-ethyl-10-(((((cholest-5-en-3-oxy)-4-oxobutanoyl)oxy)methoxy)-carbonyl)oxyl-20-O-trimethylsilyl camptothecin], the “distribution in HDL” value (lipoproteins) was 5%, the “distribution in LDL fraction” value (lipoproteins) was 86% and the “distribution in VLDL” value (lipoproteins) was 9%. The IC50 (Panc02 cells; Mus musculus, Panc02, 48 h) was 14.6 ± 4.87 µM, the “cytotoxicity relative to irinotecan” value (CT26 and MC38 cells [2]) was 5-10 times and the “Ka to LDL relative to binding affinity to albumin” value (LDL [3]) was over 2000 times. The “binding constant (Ka) to LDL” value (LDL [3]; ITC, apparent Ka for the particle) was “(4.97±0.24)×10^5 M^−1”, the “Binding affinity Ka” value (LDL [3]; protein LDL) was 49.7 ± 2.43 10^4 M^−1 and the IC50 (KPC cells; Mus musculus) was 3.18 ± 1.01 µM. It also gave an IC50 (MC38 cells; Mus musculus, MC-38, 48 h, MC38 cells, 48 h, for OxPt/SN38 the OxPt IC50) of 10.2 ± 1.99 µM, an IC50 (CT26 cells; Mus musculus, CT26, 48 h, CT26 cells, 48 h, for OxPt/SN38 the OxPt IC50) of 7.41 ± 1.03 µM and a Kd (albumin) of 4440 µM. For the same compound, the “time to reach equilibrium binding to LDL” value (LDL [4]) was at most 1 h and the “binding to LDL” value (LDL [4]) was 74.5±3.6%.
With `CC[C@@]1(OC(=O)OCCSSCCOC(=O)O[C@H]2CC[C@@]3(C)C(=CC[C@H]4[C@@H]5CC[C@H]([C@H](C)CCCC(C)C)[C@@]5(C)CC[C@@H]43)C2)C(=O)OCc2c1cc1n(c2=O)Cc2cc3ccccc3nc2-1` [Chol-SS-CPT] the PDI [5] was 0.434 and the “Z-Average (nm)” value [5] was 263.2 nm.
In the case of `CCc1c2c(nc3ccc(OC(=O)OC(C)(C)C)cc13)-c1cc3c(c(=O)n1C2)COC(=O)[C@@]3(CC)OC(=O)OCCSSCCOC(=O)O[C@H]1CC[C@@]2(C)C(=CC[C@H]3[C@@H]4CC[C@H]([C@H](C)CCCC(C)C)[C@@]4(C)CC[C@@H]32)C1` [Chol-SS-SN38-Boc], the PDI [5] is reported as 0.211 and the “Z-Average (nm)” value [5] is reported as 96.79 nm.
For `CCc1c2c(nc3ccc(OC(=O)OCCSSCCOC(=O)O[C@H]4CC[C@@]5(C)C(=CC[C@H]6[C@@H]7CC[C@H]([C@H](C)CCCC(C)C)[C@@]7(C)CC[C@@H]65)C4)cc13)-c1cc3c(c(=O)n1C2)COC(=O)[C@@]3(CC)O[Si](C)(C)C` [Chol-SS-SN38], the PDI [5] was 0.38 and the “Z-Average (nm)” value [5] was 172.3 nm.
Compound `CC(=O)O[C@@]12CO[C@@H]1C[C@H](O)[C@@]1(C)C(=O)[C@H](O)C3=C(C)[C@@H](OC(=O)[C@H](O)[C@@H](NC(=O)OC(C)(C)C)c4ccccc4)C[C@@](O)([C@@H](OC(=O)c4ccccc4)[C@H]21)C3(C)C` [DTX, docetaxel] has an IC50 (4T1 cells; Mus musculus) of 4.7 µM, a percentage of apoptosis (apoptosis/necrosis [1]) of 3.30% and an IC50 (H460 cells; Homo sapiens, NCI-H460, 48 h) of 3.69 µM.
In the case of `Nc1ccn([C@@H]2O[C@H](CO)[C@@H](O)C2(F)F)c(=O)n1` [GEM, gemcitabine], the IC50 (Panc02 cells; Mus musculus, Panc02 cells, 48 h, read-out: IC50) is reported as 0.11 ± 0.03 µM and the IC50 (KPC cells; Mus musculus, KPC cells, read-out: IC50) is reported as 0.67 ± 0.18 µM.
For `CCc1c2c(nc3ccc(OC(=O)N4CCC(N5CCCCC5)CC4)cc13)-c1cc3c(c(=O)n1C2)COC(=O)[C@]3(O)CC` [Irinotecan, irinotecan], the IC50 (CT26 and MC38 cells [6]) was about 80 µM, the IC50 (MC38 cells; Mus musculus, MC-38, 48 h, read-out: IC50) was 88.4 ± 7.48 µM and the IC50 (CT26 cells; Mus musculus, CT26, 48 h, read-out: IC50) was 79.4 ± 6.94 µM.
Compound `O=C1[O][Pt]2([NH][C@@H]3CCCC[C@H]3[NH]2)[O]C1=O` [OxPt, oxaliplatin] has an IC50 (Panc02 cells; [11]) of 14 ± 4.88 µM, an IC50 (KPC cells; KPC cells, read-out: IC50) of 5.94 ± 1.73 µM and an IC50 (MC38 cells; [12]) of 11.4 ± 1.68 µM. For the same compound, the IC50 (CT26 cells; [13]) was 9.11 ± 0.72 µM, the “early apoptotic Annexin V+/PI− cells” value (apoptosis/necrosis [7]) was 8.0±0.6% and the percentage of apoptosis (apoptosis/necrosis [7]) was 12.1%.
For `CCc1c2c(nc3ccc(O)cc13)-c1cc3c(c(=O)n1C2)COC(=O)C3(CC)OC(=O)OC(C)(C)C` (stereo not shown) [SN38-Boc, 20-O-Boc-SN38], the cytotoxicity (CT26 and MC38 cells [8]; concentrations up to 300 μM) was “no cytotoxicity”.
With `CCc1c2c(nc3ccc(O)cc13)-c1cc3c(c(=O)n1C2)COC(=O)[C@@]3(CC)O[Si](C)(C)C` [SN38-TMS, 20-O-Trimethylsilyl SN38] the “SN38 released from SN38-TMS” value ([9]; pH 7.4, 24 h) was 26%, the “SN38 released from SN38-TMS” value ([9]; pH 7.4, 48 h) was 63% and the “SN38-TMS converted to SN38” value ([9]; 24 h) was 70%. The “SN38-TMS converted to SN38” value ([9]; 48 h) was 92%.
With `CCc1c2c(nc3ccc(O)cc13)-c1cc3c(c(=O)n1C2)COC(=O)[C@]3(O)CC` [SN38] the “IC50 of SN38” value (CT26 and MC38 cells [8]; cell line not stated) was 0.086 µg/mL, the “distribution in HDL” value (lipoproteins) was 14% and the “distribution in LDL fraction” value (lipoproteins) was 17%. The “distribution in albumin fraction” value (lipoproteins) was 69%, the “Log P” value [10] was 3.37 and the IC50 (Panc02 cells; [11]) was 0.17 ± 0.12 µM. It also gave an IC50 (KPC cells; KPC cells, read-out: IC50) of 0.3 ± 0.09 µM, an IC50 (MC38 cells; [12]) of 0.24 ± 0.08 µM and an IC50 (CT26 cells; [13]) of 0.22 ± 0.05 µM. The “early apoptotic Annexin V+/PI− cells” value (apoptosis/necrosis [7]) was 25.7±1.5%, the percentage of apoptosis (apoptosis/necrosis [7]) was 34.8% and the “binding to LDL” value (LDL [4]) was 17.1±1.5%.
For `CC(C)CCC[C@@H](C)[C@H]1CC[C@H]2[C@@H]3CC=C4C[C@@H](O)CC[C@]4(C)[C@H]3CC[C@]12C` [cholesterol], the “Log P” value [10] is given as 7.02.
For `CCc1c2c(nc3ccc(OC(=O)N4CCC(N5CCCCC5)CC4)cc13)-c1cc3c(c(=O)n1C2)COC(=O)[C@]3(O)CC` [irinotecan hydrochloride], the “Log P” value [10] is given as −0.45.
gemcitabine monophosphate [GMP] showed an IC50 (Panc02 cells; [11]) of 0.06 ± 0.02 µM and an IC50 (KPC cells; KPC cells, read-out: IC50) of 0.3 ± 0.07 µM.
